{"source": "paper PMC8038991", "about": "“R-catcher, a potent molecular tool to unveil the arginylome” (Cellular and Molecular Life Sciences: CMLS, 2021)", "key": {"[1]": {"tested_on": "ZZ wild type, ZZ (N132D) and ZZ (N132Q)", "test": "Isothermal titration calorimetry, any ZZ domain (wild type, N132D, N132Q)", "type": "binding, human", "details": "ITC, 25 °C", "experimental": "(§1) For isothermal titration calorimetry (ITC), GST-fused p62 (122–175) wild type and mutants (N132Q and N132D) were expressed in E. coli BL21 (DE3) RIL competent cells in Luria–Bertani media with 0.1 mM Isopropyl-β-D-thio-galactoside (IPTG) at 18 °C. Cells were collected and sonicated in a B buffer (50 mM Tris–HCl pH 7.5, 200 mM NaCl) containing 3 mM β-mercaptoethanol (β-ME). Cell lysates were centrifuged at 18,000 × g for 1 h to remove cell debris, and this supernatant was loaded onto Glutathione Sepharose™ 4 Fast Flow resin and washed with B buffer. GST-fused proteins were eluted with 20 mM glutathione in an elution buffer (100 mM Tris–HCl pH 7.5, 200 mM NaCl, and 3 mM β-ME). The eluted samples were dialyzed in a dialysis buffer (50 mM Tris–HCl pH 7.5, 50 mM NaCl, and 3 mM β-ME) with or without TEV protease. These samples were loaded onto anion exchange column (HiTrap Q HP, GE Healthcare) and unbounded samples were collected and loaded onto size exclusion chromatography (HiLoad ™ 25/600 Superdex™ 75 pg column, GE healthcare) with the B buffer containing 0.2 mM Tris(2-carboxyethyl)phosphine (TCEP).\n(§2) Purified proteins were concentrated to 0.05 mM. 4-mer peptides as injectant were resolved in B buffer to a final concentration of 1 mM. ITC measurement was performed at 25 °C on a Microcal Auto-ITC200."}, "R-catcher [2]": {"tested_on": "R-catcher", "test": "R-catcher pulldown of putative arginylated ER proteins, HeLa", "type": "binding, human", "details": "5 µM MG132 plus 100 nM TG, RA competition, Fig. 6a", "experimental": "(§3) For small-scale R-catcher pull-down assays, 300 µg of purified R-catcher was conjugated with 120 µl of Strep-Tactin sepharose resin by incubating overnight at 4 °C. To test R-catcher’s ability to capture known arginylated proteins, such as R-BiP, R-PDI, R-nsP4 and R-RGS4, plasmids encoding Ub-X-(BiP, PDI and nsP4) or MX-RGS4 (X = Arg or Val) were transiently transfected into HEK293 cells. After 24 h, cells were treated with 10 µM MG132 and 100 nM thapsigargin for another 24 h. Cells were harvested and lysed in hypotonic buffer and 300 µg total protein was incubate with 25 µl R-catcher-sepharose resin in binding buffer (20 mM HEPES pH 7.9, 0.05% Tween 20, 10% glycerol, 0.2 M KCl, protease inhibitor and phosphatase inhibitor) for 3 h with gentle rotation at 4 °C. After three washes with binding buffer, bound proteins were dissociated with 2 × SDS sample buffer and boiling at 100 °C and subjected to immunoblotting using anti-myc or flag antibodies.\nPlasmids encoding the proteins were transiently transfected to HeLa cells for 24 h and stimulated with 5 µM MG132 plus 100 nM TG for another 24 h. Cell lysates were incubated with R-catcher immobilized on tactin beads for 3 h. After wash, bound proteins were eluted with 2 × SDS sample buffer followed by boiling at 100 °C for 10 min and visualized by western blot analysis. b R-catcher pulldown assays to validate ATE1-dependent arginylation of […]1, PRDX4, FBLN1 and CLUS. Plasmids encoding […]1, PRDX4, FBLN1 and CLUS were transiently transfected into + / + and ATE1^−/− MEFs for 24 h and stimulated with 5 µM MG132 plus 100 nM TG for another 9 h. Cell lysates were subjected to R-catcher pulldown, and bound proteins were detected by western blot analysis. c R-catcher pull-down assays to evaluate if the arginylation of FBNL1, SERPINH1, CLUS and PRDX4 is induced in response to MG132 plus thapsigargin. d X-peptide pulldown assays to confirm no interaction of R-catcher with Nt-Ala19 of SERPINH1 peptides and Nt-Trp38 of PRDX4 peptides. X-peptides where X is A19 (SignalP predicted P1’ site), E20 (next possible P1’ site predicted by PrediSi) or R19 (Arginylated form of Glu) for SERPINH1 and W38 (SignalP predicted P1’ site), E39 (next possible P1’ site predicted by PrediSi) or R38 (Arginylated form) for PRDX4. Biotinylated X-peptides immobilized on streptavidin agarose beads were incubated with affinity-purified GST-ZZ ([…]). Bound GST-ZZ (N132D) was detected by immunoblotting. e Identification of arginylated sites employing mutational analysis. Predicted P1’ sites of SERPINH1, PRDX4, CLUS and FBLN1 were substituted to Gly, and the inhibitory effect of the mutation on binding with R-catcher was examined by performing R-catcher pulldown assays"}, "R-catcher [3]": {"tested_on": "R-catcher", "test": "Small-scale R-catcher pulldown of known arginylated proteins", "type": "binding, human", "details": "for pulldown by R-catcher, overexpressed substrates: HEK293 cells, R-catcher on tactin beads, immunoblot", "experimental": "as §3"}, "[4]": {"target": "T1, wild type ZZ122-175 (p62) (Homo sapiens, UniProt Q13501)", "T1 construct": "GST-fused p62 (122–175) wild type and mutants (N132Q and N132D) were expressed in E. coli; GST (N); made in house; host or cells: E. coli BL21 (DE3) RIL", "T1 sequence (Q13501 122-175)": "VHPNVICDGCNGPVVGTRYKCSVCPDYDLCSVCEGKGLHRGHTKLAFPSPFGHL", "test": "Isothermal titration calorimetry, wild type ZZ (Fig. 3b)", "details": "ITC, wild type ZZ122-175, 25 °C; read-out: binding affinity (KD)"}, "[5]": {"target": "T2, GST-ZZ122-175 domain (p62) (Homo sapiens, UniProt Q13501)", "T2 construct": "GST-fused p62 (122–175) wild type and mutants (N132Q and N132D) were expressed in E. coli; made in house; host or cells: E. coli BL21 (DE3) RIL", "T2 sequence (Q13501 122-175)": "as above", "test": "Isothermal titration calorimetry, GST-ZZ122-175 (Fig. 2e)", "type": "binding", "experimental": "as §1, §2"}, "[6]": {"target": "T3, N132D mutant ZZ122-175 (p62) (Homo sapiens, UniProt Q13501, N132D)", "T3 construct": "GST-fused p62 (122–175) wild type and mutants (N132Q and N132D) were expressed in E. coli; GST (N); made in house; host or cells: E. coli BL21 (DE3) RIL", "T3 sequence (Q13501 122-175 N132D)": "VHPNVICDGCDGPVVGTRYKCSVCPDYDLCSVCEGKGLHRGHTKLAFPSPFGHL", "test": "Isothermal titration calorimetry, N132D ZZ", "details": "ITC, N132D ZZ122-175, 25 °C; read-out: binding affinity (KD)"}, "[7]": {"target": "T4, N132Q mutant ZZ122-175 (p62) (Homo sapiens, UniProt Q13501, N132Q)", "T4 construct": "GST-fused p62 (122–175) wild type and mutants (N132Q and N132D) were expressed in E. coli; GST (N); made in house; host or cells: E. coli BL21 (DE3) RIL", "T4 sequence (Q13501 122-175 N132Q)": "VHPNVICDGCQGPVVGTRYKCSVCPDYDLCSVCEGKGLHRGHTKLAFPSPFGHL", "test": "biochemical", "type": "binding"}, "[8]": {"tested_on": "HeLa cell extracts stimulated with MG132 plus TG", "test": "Large-scale R-catcher pulldown coupled to silver staining and LC-MS/MS", "set-up": "species or system human", "details": "for presence in R-catcher working list: LC-MS/MS working list", "experimental": "For large-scale R-catcher pulldown assays, HeLa cells were treated with 5 µM MG132 and 100 nM thapsigargin for 24 h. Cells were lysed in hypotonic buffer and 10 mg total was incubated with 750 µl R-catcher-sepharose beads for 3 h at 4 °C after pre-clearing with D129A mutant R-catcher-sepharose beads for 3 h at 4 °C. After three washes with binding buffer, bound proteins were eluted with binding buffer containing 20 mM D-biotin. To remove R-catcher, the eluent was dialyzed using 20 kDa cut-off dialysis membrane in binding buffer containing 3.5 M MgCl2 overnight followed by another overnight dialysis in distilled-deionized water. The dialyzed eluent was lyophilized overnight and dried powder was dissolved in 100 µl LC/MS solubilizer for silver staining and mass spectrometry analysis.\nProtein samples solubilized in Invitrosol LC/MS solubilizer (Invitrogen) as following by manufacturer protocol. For removal of incompatible buffer components, protein samples filtrate with 10 K MW ultrafilter for complete digestion. For preparing trypsinization of samples, the retentates were dissolved in 50 mM of ammonium bicarbonate (pH 8.0) untill it reach 1 μg/μL of final concentration. The samples treated with 10 mM DTT at 60 °C for 45 min. Following 20 mM IAA addition, the final mixture incubated in dark for 45 min at 25 °C. 1:50 ratio of Trypsin was added on mixture. The mixture incubated overnight at 37 °C. Final digested samples dried with speed-vacuum. Samples re-dissolved in 20 μL of water containing 0.1% formic acid for LC–MS/MS analysis.\nPeptides were analyzed using a LC–MS/MS system consisting of an Easy nLC 1000 (Thermo Fisher scientific) and an Orbitrap Fusion Lumos mass spectrometer (Thermo Fisher Scientific) equipped with a nano-electrospray source (EASY-Spray Sources, Thermo Fisher Scientific). Peptides were trapped 75 μm × 2 cm C18 pre-column (nanoViper, Acclaim PepMap100, Thermo Fisher Scientific) before being separated on an analytical C18 column (75 μm × 50 cm PepMap RSLC, Thermo Fisher Scientific) at a flow rate of 300 nL/min. The mobile phases A and B were composed of 0 and 100% acetonitrile containing 0.1% formic acid, respectively. The LC gradient began with 5% B and was ramped to 8% B for 1 min, 10% B for 16 min, to 40% B for 79 min, to 80% B for 1 min, and remained at 80% B over 8 min. Finally, it was ramped to 5% B for another 5 min. The column was re-equilibrated with 2% B for 10 min before the next run. The voltage applied to produce an electrospray was 1900 V. During the chromatographic separation, the Orbitrap Fusion Lumos was operated in data-dependent mode, automatically switching between MS1 and MS2. The MS data were acquired using the following parameters: Full-scan MS1 spectra (400–1600 m/z) were acquired in the Orbitrap for a maximum ion injection time of 100 ms at a resolution of 120,000 and an automatic gain control (AGC) target value of 4.0e5. MS2 spectra were acquired in the Orbitrap mass analyzer at resolution of 30,000 with high-energy collision dissociation (HCD) of 27% normalized collision energy and AGC target value of 5.0e4 with maximum ion injection time of 54 ms. Previously fragmented ions were excluded for 30 s.\nMS/MS spectra were analyzed using the following software analysis protocols with the Uniprot human DB (2019). The reversed sequences of all proteins were appended into the database for calculation of false discovery rate (FDR). ProLucid was used to identify the peptides, a precursor mass error of 5 ppm, and a fragment ion mass error of 200 ppm. Trypsin was selected as the enzyme, with one potential missed cleavage. Carbamidomethylation at cystein was chosen as static modifications. Oxidation at methionine was chosen as variable modification. The output data files were filtered and sorted to compose the protein list using the DTASelect (The Scripps Research Institute, USA) with two and more peptides assignments for a protein identification and a false positive rate less than 0.01. […]"}}, "note": "“Also recorded” adds a separate entry of the source. Where two headings read alike, the source gives them in different places. Peptide text beside a SMILES is read from it.", "data": [{"molecule": "TIFS [4-mer peptide]", "values": [{"measurement": "affinity for ZZ domains", "setting": "[1]", "result": "no affinity"}]}, {"molecule": "ENPL: endoplasmin", "values": [{"measurement": "binding with R-catcher, Nt-Arg dependence", "setting": "R-catcher [2]", "result": "no significant binding affinity for R-catcher"}]}, {"molecule": "R-PDI: arginylated PDI", "values": [{"measurement": "R-PDI binding to R-catcher, preliminary", "setting": "R-catcher [3]; preliminary result, N-termini enhancing methods", "result": "detected R-PDI binding to R-catcher"}]}, {"molecule": "CC[C@H](C)[C@H](NC(=O)[C@@H](N)Cc1ccc(O)cc1)C(=O)N[C@@H](Cc1ccccc1)C(=O)N[C@@H](CO)C(=O)O", "note": "[YIFS] (H-YIFS-OH)", "values": [{"measurement": "Kd", "setting": "[4]", "result": 20.7, "unit": "µM"}, {"measurement": "Kd", "setting": "[5]; ITC, (GST-)ZZ122-175 wild type, 25 °C, read-out: KD", "result": 16.1, "unit": "µM"}, {"measurement": "Kd", "setting": "[6]", "result": 107, "unit": "µM"}]}, {"molecule": "CC[C@H](C)[C@H](NC(=O)[C@@H](N)CCCNC(=N)N)C(=O)N[C@@H](Cc1ccccc1)C(=O)N[C@@H](CO)C(=O)O", "note": "[RIFS] (H-RIFS-OH)", "values": [{"measurement": "Kd", "setting": "[7]", "result": "21.4 ± 9.51", "unit": "µM"}, {"measurement": "Kd", "setting": "[4]", "result": 6.9, "unit": "µM"}, {"measurement": "Kd", "setting": "[5]", "result": "4.39 ± 0.449", "unit": "µM"}, {"measurement": "Kd", "setting": "[6]", "result": 2.85, "unit": "µM"}]}, {"molecule": "FKBP10: FK506-binding protein 10", "values": [{"measurement": "binding with R-catcher, Nt-Arg dependence", "setting": "R-catcher [2]", "result": "Nt-Arg-dependent binding with R-catcher; also recorded: unusually high binding affinity for R-catcher"}]}, {"molecule": "LIFS [peptide]", "values": [{"measurement": "affinity for ZZ domains", "setting": "[1]", "result": "no affinity"}]}, {"molecule": "FIFS [peptide]", "values": [{"measurement": "affinity for ZZ domains", "setting": "[1]", "result": "no affinity"}]}, {"molecule": "BiP: ER chaperone BiP, arginylated (2nd Glu)", "values": [{"measurement": "pulldown by R-catcher, overexpressed substrates", "setting": "R-catcher [3]; Fig. 4d", "result": "could pulldown"}, {"measurement": "pulldown by R-catcher, endogenous", "setting": "R-catcher [3]; HeLa, MG132 plus TG, Fig. 4e", "result": "could pulldown"}, {"measurement": "presence in R-catcher working list", "setting": "[8]", "result": "among the known arginylated proteins"}]}, {"molecule": "R-catcher: ZZ122-175^N132D tagged with twin strepII-His6 at the N-terminus, approximately 9 kDa protein", "values": [{"measurement": "number of known and putative arginylated proteins captured (final working list)", "setting": "[8]; HeLa, MG132 + TG", "result": 59, "unit": "proteins"}, {"measurement": "number of proteins in WT list", "setting": "[8]; no dipeptide, LC-MS/MS, Fig. 5c", "result": 83, "unit": "proteins"}, {"measurement": "number of proteins in AR list", "setting": "[8]; with AR dipeptide competition", "result": 163, "unit": "proteins"}, {"measurement": "number of proteins in RA list", "setting": "[8]; with RA dipeptide competition", "result": 42, "unit": "proteins"}]}, {"molecule": "IIFS [peptide]", "values": [{"measurement": "affinity for ZZ domains", "setting": "[1]", "result": "no affinity"}]}, {"molecule": "PDI: protein disulfide isomerase, arginylated (2nd Asp)", "values": [{"measurement": "binding affinity for R-catcher", "setting": "R-catcher [3]; Fig. 4d, discussion", "result": "low binding affinity"}, {"measurement": "pulldown by R-catcher, overexpressed substrates", "setting": "R-catcher [3]; Fig. 4d", "result": "could pulldown"}, {"measurement": "presence in R-catcher working list", "setting": "[8]", "result": "not detected in our list"}]}]}
